Measured values from ChEMBL document CHEMBL1146994, “Advances toward new antidepressants beyond SSRIs: 1-aryloxy-3-piperidinylpropan-2-ols with dual 5-HT1A receptor antagonism/SSRI activities. Part 5” (Bioorg Med Chem Lett, 2006).
Calls of active or inactive are those of the source. The rule behind the calls is not given here.

Columns and labels:
[1] = target: Sodium-dependent serotonin transporter (Homo sapiens, UniProt P31645); assay: Displacement of [3H]paroxetine from 5HT reuptake site
[2] = target: T1, 5-hydroxytryptamine receptor 1A (Rattus norvegicus) (UniProt P19327); assay: Receptor occupancy ex vivo by inhibition of [3H]8-OH-DPAT binding to 5HT1A receptor in Sprague-Dawley rat frontal cortex tissue at 30 mg/kg, po relative to control; assay type: functional, organism-based; design: dose 30 mg/kg
T1 sequence (whole entry): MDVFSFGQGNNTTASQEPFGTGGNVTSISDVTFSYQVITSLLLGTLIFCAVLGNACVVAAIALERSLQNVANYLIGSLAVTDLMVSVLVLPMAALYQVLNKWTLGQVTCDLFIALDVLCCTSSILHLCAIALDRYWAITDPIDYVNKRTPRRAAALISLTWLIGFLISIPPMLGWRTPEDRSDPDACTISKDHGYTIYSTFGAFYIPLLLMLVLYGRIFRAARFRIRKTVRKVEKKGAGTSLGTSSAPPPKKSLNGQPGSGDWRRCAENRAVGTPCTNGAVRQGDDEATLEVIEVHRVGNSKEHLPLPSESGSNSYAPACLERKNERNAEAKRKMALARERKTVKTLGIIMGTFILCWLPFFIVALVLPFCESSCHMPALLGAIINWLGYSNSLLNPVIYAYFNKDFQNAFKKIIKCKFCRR

Rattus norvegicus [3] = assay: Ability to block 8-OH-DPAT-induced increase of corticosterone in po dosed rat serum after 1 hr; assay type: functional
[4] = target: Sodium-dependent serotonin transporter (Rattus norvegicus) (UniProt P31652); assay: Receptor occupancy ex vivo by inhibition of [3H]paroxetine binding to 5HT reuptake site in Sprague-Dawley rat frontal cortex tissue at 30 mg/kg, po relative to control; assay type: functional, organism-based; design: dose 30 mg/kg
Sequence of Sodium-dependent serotonin transporter (Rattus norvegicus) (P31652 whole entry): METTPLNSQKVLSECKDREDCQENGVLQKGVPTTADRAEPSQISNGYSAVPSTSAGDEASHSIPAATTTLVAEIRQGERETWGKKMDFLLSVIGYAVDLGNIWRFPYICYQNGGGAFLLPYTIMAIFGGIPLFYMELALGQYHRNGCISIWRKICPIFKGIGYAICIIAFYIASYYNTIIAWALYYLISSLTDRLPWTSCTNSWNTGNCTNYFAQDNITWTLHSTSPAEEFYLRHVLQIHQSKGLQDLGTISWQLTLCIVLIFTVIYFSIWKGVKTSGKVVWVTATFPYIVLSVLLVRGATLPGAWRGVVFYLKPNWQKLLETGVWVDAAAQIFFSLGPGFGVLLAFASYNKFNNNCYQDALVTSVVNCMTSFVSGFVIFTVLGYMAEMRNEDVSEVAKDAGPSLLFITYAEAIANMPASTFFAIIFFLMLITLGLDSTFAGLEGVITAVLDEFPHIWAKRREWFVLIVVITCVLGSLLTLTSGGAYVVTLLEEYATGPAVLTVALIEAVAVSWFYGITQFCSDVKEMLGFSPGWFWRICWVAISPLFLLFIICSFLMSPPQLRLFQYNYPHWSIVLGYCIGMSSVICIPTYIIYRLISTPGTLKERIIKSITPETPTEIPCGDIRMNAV

Rattus norvegicus [5] = assay: Increase in 5HT level in Sprague-Dawley rat hypothalamus by microdialysis at 20 mg/kg, po (basal value set at 100%); assay type: functional
Rattus norvegicus [6] = assay: Ability to block PCA-induced depletion of 5HT concentration in po dosed rat brain after 2 hrs; assay type: functional
Rattus norvegicus [7] = assay: Increase in 5HT level in Sprague-Dawley rat hypothalamus by microdialysis at 30 mg/kg, po (basal value set at 100%); assay type: functional
Rattus norvegicus [8] = assay: Ability to block PCA-induced depletion of 5HT concentration in sc dosed rat brain after 2 hrs; assay type: functional
Rattus norvegicus [9] = assay: Increase in 5HT level in Sprague-Dawley rat hypothalamus by microdialysis at 10 mg/kg, po (basal value set at 100%); assay type: functional
Rattus norvegicus [10] = assay: Ability to block 8-OH-DPAT-induced increase of corticosterone in sc dosed rat serum after 1 hr; assay type: functional
Rattus norvegicus [11] = assay: Reduction of serotonergic neuron level in dorsal raphe nucleus of anesthetized rat after 3 days of sub-chronic administration at 10 mg/kg/day; assay type: functional, organism-based
Rattus norvegicus [12] = assay: Increase in 5HT level in Sprague-Dawley rat hypothalamus by microdialysis at 20 mg/kg, sc (basal value set at 100%); assay type: functional; settings: route subcutaneous
Rattus norvegicus [13] = assay: Increase in 5HT level in Sprague-Dawley rat hypothalamus by microdialysis at 10 mg/kg, ip (basal value set at 100%); assay type: functional; settings: route intraperitoneal

Sequence of Sodium-dependent serotonin transporter (P31645 whole entry): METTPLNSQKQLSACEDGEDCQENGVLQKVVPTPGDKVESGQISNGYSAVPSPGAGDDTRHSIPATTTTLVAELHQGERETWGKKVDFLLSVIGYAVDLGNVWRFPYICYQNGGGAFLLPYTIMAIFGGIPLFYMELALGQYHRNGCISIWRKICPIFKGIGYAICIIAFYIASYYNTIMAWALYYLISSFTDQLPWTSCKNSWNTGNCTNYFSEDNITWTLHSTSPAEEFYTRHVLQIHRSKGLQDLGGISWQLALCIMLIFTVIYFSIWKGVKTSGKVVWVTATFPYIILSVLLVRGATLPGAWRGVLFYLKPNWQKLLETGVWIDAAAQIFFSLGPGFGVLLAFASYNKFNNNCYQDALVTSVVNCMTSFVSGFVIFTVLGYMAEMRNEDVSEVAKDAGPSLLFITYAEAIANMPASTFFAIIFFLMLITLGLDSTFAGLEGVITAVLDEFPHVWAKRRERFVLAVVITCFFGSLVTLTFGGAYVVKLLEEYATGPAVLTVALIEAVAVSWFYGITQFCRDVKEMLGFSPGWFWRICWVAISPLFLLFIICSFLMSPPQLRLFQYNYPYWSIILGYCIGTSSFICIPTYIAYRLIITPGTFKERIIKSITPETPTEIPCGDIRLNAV

## COc1cccc2sc(C3CCN(C[C@H](O)COc4cccc5[nH]c(C)cc45)CC3)cc12
[1]
  Ki: 51.2 nM

## COc1cccc2sc([C@H]3CCN(C[C@H](O)COc4cccc5[nH]ccc45)[C@H](C)C3)cc12
[2]
  inhibition: 33%
Rattus norvegicus [3]
  ED50: > 30 mg/kg
[4]
  inhibition: 8%
[1]
  Ki: 1.15 nM
Rattus norvegicus [5]
  Activity: 330%
Rattus norvegicus [6]
  ED50: > 10 mg/kg

## O[C@H](COc1cccc2[nH]ccc12)CN1CCC(c2cc3ccc(F)cc3s2)CC1
[2]
  inhibition: 9%
Rattus norvegicus [7]
  Activity: 130%
[4]
  inhibition: 13%
[1]
  Ki: 1.99 nM

## COc1cccc2sc(C3CCN(C[C@H](O)COc4cccc5[nH]ccc45)CC3)cc12
[2]
  inhibition: 4%
[4]
  inhibition: 100%
[1]
  Ki: 12.6 nM

## COc1ccc2cc([C@@H]3CCN(C[C@H](O)COc4cccc5[nH]ccc45)[C@@H](C)C3)sc2c1
[2]
  inhibition: 14%
Rattus norvegicus [7]
  Activity: 140%
Rattus norvegicus [8]
  ED50: 1.07 mg/kg
[4]
  inhibition: 29%
[1]
  Ki: 1.1 nM

## Cc1cc2c(OC[C@@H](O)CN3CC[C@@H](c4cc5cc(F)ccc5s4)C[C@@H]3C)cccc2[nH]1
[2]
  inhibition: 6%
Rattus norvegicus [7]
  Activity: 315%
[4]
  inhibition: 30%
[1]
  Ki: 0.24 nM

## Cc1cc2c(OC[C@@H](O)CN3CC[C@@H](c4cc5ccccc5s4)C[C@@H]3C)cccc2[nH]1
Rattus norvegicus [9]
  Activity: 119%
[2]
  inhibition: 5%
[4]
  inhibition: 17%

## COc1cccc2sc([C@H]3CCN(C[C@H](O)COc4cccc5[nH]ccc45)[C@@H](C)C3)cc12
[2]
  inhibition: 40%
[4]
  inhibition: 88%
[1]
  Ki: 13.6 nM

## O[C@H](COc1cccc2[nH]ccc12)CN1CCC(c2cc3ccccc3s2)CC1
[2]
  inhibition: 6%
[4]
  inhibition: 80%
[1]
  Ki: 16.7 nM

## C[C@H]1C[C@H](c2cc3ccc(F)cc3s2)CCN1C[C@H](O)COc1cccc2[nH]ccc12
[2]
  inhibition: 23%
Rattus norvegicus [7]
  Activity: 479%
Rattus norvegicus [3]
  ED50: > 30 mg/kg
[4]
  inhibition: 8%
[1]
  Ki: 0.31 nM
Rattus norvegicus [10]
  ED50: 5.08 mg/kg
Rattus norvegicus [6]
  ED50: 0.69 mg/kg

## Cc1cccc2sc([C@@H]3CCN(C[C@H](O)COc4cccc5[nH]ccc45)[C@@H](C)C3)cc12
[2]
  inhibition: 20%
Rattus norvegicus [7]
  Activity: 210%
Rattus norvegicus [3]
  ED50: > 30 mg/kg
[4]
  inhibition: 9%
[1]
  Ki: 0.44 nM
Rattus norvegicus [6]
  ED50: 1.65 mg/kg

## COc1cccc2sc([C@@H]3CCN(C[C@H](O)COc4cccc5[nH]ccc45)[C@@H](C)C3)cc12
[2]
  inhibition: 13%
Rattus norvegicus [7]
  Activity: 368%
Rattus norvegicus [3]
  ED50: 21.1 mg/kg
[4]
  inhibition: 11%
[1]
  Ki: 0.27 nM
Rattus norvegicus [6]
  ED50: 3.71 mg/kg

## COc1cccc2sc([C@@H]3CCN(C[C@H](O)COc4cccc5[nH]ccc45)[C@H](C)C3)cc12
[2]
  inhibition: 28%
[4]
  inhibition: 70%

## C[C@H]1C[C@H](c2cc3cc(Cl)ccc3s2)CCN1C[C@H](O)COc1cccc2[nH]ccc12
[2]
  inhibition: 47%
Rattus norvegicus [3]
  ED50: 26 mg/kg
[4]
  inhibition: 39%
[1]
  Ki: 0.58 nM
Rattus norvegicus [5]
  Activity: 287%
Rattus norvegicus [6]
  ED50: 3.65 mg/kg

## COc1cccc2sc([C@@H]3CCN(C[C@H](O)COc4cccc5[nH]c(C)cc45)[C@@H](C)C3)cc12
Rattus norvegicus [9]
  Activity: 713%
[2]
  inhibition: -3%
Rattus norvegicus [11]
  Activity: inactive
Rattus norvegicus [3]
  ED50: 3.2 mg/kg
[4]
  inhibition: 26%
Rattus norvegicus [6]
  ED50: 3.79 mg/kg

## C[C@H]1C[C@H](c2cc3ccccc3s2)CCN1C[C@H](O)COc1cccc2[nH]ccc12
[2]
  inhibition: 1%
Rattus norvegicus [12]
  Activity: 264%
Rattus norvegicus [8]
  ED50: 0.28 mg/kg
[4]
  inhibition: -2%
[1]
  Ki: 0.51 nM
Rattus norvegicus [10]
  ED50: 2.83 mg/kg

## CNCCC(Oc1ccc(C(F)(F)F)cc1)c1ccccc1 (stereo not drawn) [FLUOXETINE]
Rattus norvegicus [11]
  Activity: Active
Rattus norvegicus [13]
  Activity: 160%
